Test results published in ChEMBL document CHEMBL1152905, “Identification and characterization of a selective radioligand for melanin-concentrating hormone 1-receptor (MCH1R)” (Bioorg Med Chem Lett, 2009).
One block for each compound: values may come before it. Activity calls are given as the source filed them. No cut-off for these calls is given here. Bridge positions count the residues as written; N and C are the ends. Peptide text beside a SMILES is read from it. * marks the point of attachment. X2 = NC(=O)CC[C@@H](CN[C@@H](Cc1ccc(O)c(I)c1)C(=O)O)N*; X1 = NC(=O)CC[C@@H](CN[C@@H](Cc1ccc(O)cc1)C(=O)O)N*

Legend:
[1] = target: T1, Melanin-concentrating hormone receptor 1 (Homo sapiens, UniProt Q99705); assay: Displacement of[125I]MCH from human MCH1R expressed in CHO cells; assay type: cell-based
T1 sequence (Q99705 whole entry): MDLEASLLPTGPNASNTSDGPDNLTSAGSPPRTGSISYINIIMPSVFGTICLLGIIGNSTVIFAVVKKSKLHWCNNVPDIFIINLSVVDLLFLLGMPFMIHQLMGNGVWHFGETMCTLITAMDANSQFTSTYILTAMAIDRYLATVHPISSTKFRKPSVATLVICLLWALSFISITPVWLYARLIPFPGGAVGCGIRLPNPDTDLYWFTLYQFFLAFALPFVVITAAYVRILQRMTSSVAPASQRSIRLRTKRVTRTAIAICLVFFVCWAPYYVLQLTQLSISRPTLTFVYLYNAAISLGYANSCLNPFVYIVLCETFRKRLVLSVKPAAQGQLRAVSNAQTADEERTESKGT

[2] = Lipophilicity, log D at pH 7.4; assay type: physicochemical; conditions: buffer
[3] = target: T1, Melanin-concentrating hormone receptor 1; assay: Binding affinity to human MCH1R expressed in CHO cells by scintillation counting per mg of protein; assay type: cell-based
[4] = target: Melanin-concentrating hormone receptor 1 (Mus musculus) (UniProt Q8JZL2); assay: Binding affinity to MCH1R in wild type mouse coronal slice […] at 500 pM by radioactivity study; conditions: tested as the 35S-labelled form
Sequence of Melanin-concentrating hormone receptor 1 (Mus musculus) (Q8JZL2 whole entry): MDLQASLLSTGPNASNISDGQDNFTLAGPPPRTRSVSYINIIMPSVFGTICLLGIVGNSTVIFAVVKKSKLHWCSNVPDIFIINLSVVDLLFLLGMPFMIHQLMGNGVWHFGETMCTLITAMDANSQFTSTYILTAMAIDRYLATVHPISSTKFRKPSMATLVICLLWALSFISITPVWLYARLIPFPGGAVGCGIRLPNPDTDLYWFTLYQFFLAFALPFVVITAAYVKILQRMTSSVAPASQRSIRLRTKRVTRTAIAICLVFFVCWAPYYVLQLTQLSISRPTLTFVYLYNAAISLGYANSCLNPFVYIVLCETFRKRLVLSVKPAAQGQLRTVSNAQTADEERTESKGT

[5] = target: T1, Melanin-concentrating hormone receptor 1; assay: Displacement of [35S] 4-(1-(3,4-difluorophenyl)-2-(ethyl(3-(6-fluoro-3H-spiro[isobenzofuran-1,4'-piperidine]-1'-yl)propyl)amino)-2-oxoethyl)-3-oxopiperazine-1-sulfonic acid from human MCH1R
[6] = target: Melanin-concentrating hormone receptor 1 (Mus musculus, UniProt Q8JZL2); assay: Displacement of [35S] 4-(1-(3,4-difluorophenyl)-2-(ethyl(3-(6-fluoro-3H-spiro[isobenzofuran-1,4'-piperidine]-1'-yl)propyl)amino)-2-oxoethyl)-3-oxopiperazine-1-sulfonic acid from mouse MCH1R
Sequence of Melanin-concentrating hormone receptor 1 (Mus musculus, UniProt Q8JZL2) (Q8JZL2 whole entry): as above

[7] = target: Melanin-concentrating hormone receptor 2 (Homo sapiens, UniProt Q969V1); assay: Displacement of [35S] 4-(1-(3,4-difluorophenyl)-2-(ethyl(3-(6-fluoro-3H-spiro[isobenzofuran-1,4'-piperidine]-1'-yl)propyl)amino)-2-oxoethyl)-3-oxopiperazine-1-sulfonic acid from human MCH2R
Sequence of Melanin-concentrating hormone receptor 2 (Q969V1 whole entry): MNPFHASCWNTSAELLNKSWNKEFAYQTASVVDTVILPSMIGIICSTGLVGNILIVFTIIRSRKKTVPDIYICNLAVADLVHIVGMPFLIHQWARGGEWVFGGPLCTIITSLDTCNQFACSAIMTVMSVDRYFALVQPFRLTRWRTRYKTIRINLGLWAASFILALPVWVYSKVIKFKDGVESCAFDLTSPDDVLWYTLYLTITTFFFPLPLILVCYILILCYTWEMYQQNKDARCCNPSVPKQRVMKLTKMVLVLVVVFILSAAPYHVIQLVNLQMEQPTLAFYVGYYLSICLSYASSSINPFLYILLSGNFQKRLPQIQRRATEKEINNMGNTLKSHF

Structure (SMILES): CCN(CCCN1CCC2(CC1)OCc1ccc(F)cc12)C(=O)C(c1ccc(F)c(F)c1)N1CCN(C(=O)OC(C)(C)C)CC1=O (stereo in doubt; 5a)
IC50 [1]: 0.24 nM

Structure (SMILES): CCN(CCCN1CCC2(CC1)OCc1ccc(F)cc12)C(=O)C(c1ccc(F)c(F)c1)N1CCCC1=O (centres undefined)
IC50 [1]: 0.71 nM

Structure (SMILES): CCN(CCCN1CCC2(CC1)OCc1ccc(F)cc12)C(=O)C(c1ccc(F)c(F)c1)N1CCN(C(=O)OC(C)(C)C)CC1=O (stereo in doubt; 5b)
IC50 [1]: 145 nM

Structure (SMILES): CN(CCCN1CCC2(CC1)OCc1ccccc12)C(=O)C(c1ccc(F)c(F)c1)N1CCCC1=O (centres undefined)
IC50 [1]: 2.7 nM
logD [2]: 2.2

Structure (SMILES): CCN(CCCN1CCC2(CC1)OCc1ccc(F)cc12)C(=O)C(c1ccc(F)c(F)c1)N1CCNCC1=O (centres undefined)
IC50 [1]: 0.87 nM

Structure (SMILES): CCN(CCCN1CCC2(CC1)OCc1ccc(F)cc12)C(=O)C(c1ccc(F)c(F)c1)N1CCN(S(C)(=O)=O)CC1=O (centres undefined)
Bmax ([3]; tested as the 35S-labelled form): 23 pmol
Activity [4]: Active

Ki [5]: 0.034 nM
Ki [6]: 0.052 nM
Ki [7]: 1.6 nM
Structure (SMILES): CSCC[C@@H]1NC(=O)[C@@H](NC(=O)[C@H](CCCNC(=N)N)NC(=O)[C@H](CC(C)C)NC(=O)[C@H](CCSC)NC(=O)[C@H](CC(=O)O)NC(=O)[C@H](Cc2ccccc2)NC(=O)[C@@H](N)CC(=O)O)CSSC[C@@H](C(=O)N[C@@H](Cc2c[nH]c3ccccc23)C(=O)N[C@@H](CCC(N)=O)CN[C@@H](Cc2ccc(O)cc2)C(=O)O)NC(=O)[C@@H]2CCCN2C(=O)[C@H](CCCNC(=N)N)NC(=O)[C@H](Cc2ccccc2)NC(=O)[C@H](C(C)C)NC(=O)[C@H](CCCNC(=N)N)NC(=O)CNC(=O)[C@H](CC(C)C)NC1=O (H-DFDMLRCMLGRVFRPCW-X1; disulfide 7-16)

Structure (SMILES): CCN(CCCN1CCC2(CC1)OCc1ccc(F)cc12)C(=O)C(c1ccc(F)c(F)c1)N1CCN([35S](C)(=O)=O)CC1=O (centres undefined)
Ki [6]: 0.5 nM
Ki [7]: > 9700 nM

Structure (SMILES): CSCC[C@@H]1NC(=O)[C@@H](NC(=O)[C@H](CCCNC(=N)N)NC(=O)[C@H](CC(C)C)NC(=O)[C@H](CCSC)NC(=O)[C@H](CC(=O)O)NC(=O)[C@H](Cc2ccccc2)NC(=O)[C@@H](N)CC(=O)O)CSSC[C@@H](C(=O)N[C@@H](Cc2c[nH]c3ccccc23)C(=O)N[C@@H](CCC(N)=O)CN[C@@H](Cc2ccc(O)c(I)c2)C(=O)O)NC(=O)[C@@H]2CCCN2C(=O)[C@H](CCCNC(=N)N)NC(=O)[C@H](Cc2ccccc2)NC(=O)[C@H](C(C)C)NC(=O)[C@H](CCCNC(=N)N)NC(=O)CNC(=O)[C@H](CC(C)C)NC1=O (H-DFDMLRCMLGRVFRPCW-X2; disulfide 7-16)
Bmax ([3]; tested as the 125I-labelled form): 24 pmol
